Experimental findings from article PMC11250742, “Preclinical evaluation of CXCR4 peptides for targeted radionuclide therapy in glioblastoma” (EJNMMI Radiopharmacy and Chemistry, 2024) are described below.

What all share (type): cell-based
Experiment [1] has as its system U87-CXCR4 + cells. Kind of experiment: Cell membrane binding and internalisation assay. Here is the method: In the saturation binding assays, U87-CXCR4 + cells were seeded in 24-well plates and allowed to adhere. The night before the experiment, complete media was replaced with media containing 2% FBS. To determine the total binding, cells were treated with a mixture of each radiolabelled peptide (at final concentrations ranging from 0.1 to 1000 nM, corresponding to activity concentrations ranging from 0.005 to 50 MBq/mL) with 0.2% dimethyl sulfoxide (DMSO, vehicle). Non-specific binding (NSB) was verified by treating cells with a mixture of each radiolabelled peptide with 100 µM of AMD11070, a potent CXCR4 antagonist.
After 4 h of incubation at 37 °C and 5% CO2, the unbound fraction was collected in gamma counter tubes, and the cells were washed twice with PBS. The wash fractions were added to the same gamma counter tubes. Next, cells were lysed by incubation with 1 M NaOH for 30 min at room temperature (RT). After collecting the lysed cell fractions, two washes with 1 M NaOH were performed, and added to the same fractions, corresponding to the total bound fractions.
For the internalisation assay, 1 and 100 nM of the radiolabelled peptides were used. The membrane-bound fraction was separated from the internalised fraction by a 10 min incubation at RT with a stripping buffer of 50 mM glycine and 100 mM NaCl, pH 2.8. This was followed by lysis with 1 M NaOH as described above.
The activities of all collected fractions were measured in an automated gamma counter. Activity measurements were converted to % added activity (%AA) and normalised for cell counts. A standard curve, obtained by measuring the treatment solutions, was used to convert the activity concentration to moles.

For experiment [2], the system named is U87-CXCR4 + cells. Kind of experiment: MTS cell viability assay. The settings on record: for cell viability: % of vehicle, mean ± SD. On the procedure: Cell viability assays were performed using increasing activity concentrations of the radiolabelled peptides (1 to 20 MBq/mL), incubated with U87-CXC4 + cells for four hours at 37 °C, 5% CO2. After the incubation period, cells were washed twice with PBS and replenished with complete media. After five and seven days of treatment, the cell media was removed and MTS (3-(4,5-dimethylthiazol-2-yl)-5-(3-carboxymethoxyphenyl)-2-(4-sulfophenyl)-2 H-tetrazolium) reagent added, prepared according to manufacturer’s instructions (CellTiter 96® AQueous One Solution Cell Proliferation Assay, Promega, Wisconsin, United States). To determine the effect of the radiation originating from unbound radiolabelled peptides, cells were treated with equivalent activity concentrations of [^177Lu]Lu-DTPA. Triton X-100 (0.1%) was used as a positive control. Vehicle includes the NaOAc radiolabeling buffer at the concentration used for the 20 MBq/mL peptide solutions. The cells were incubated for 0.5–1 h with the MTS reagent at 37 °C, 5% CO2. Absorbance was measured at 490 nm using a BioTek Synergy H1 plate reader (Agilent Technologies, Mechelen, Belgium). Cell viability was normalised to the vehicle and calculated as percentage of cell viability.
A general note: Tetrazolium dyes change colour on reduction, which living cells bring about.

For experiment [3], the system named is U87-CXCR4 + cells. The experiment in a line: DNA damage immunofluorescence (yH2AX / 53BP1). Here is the method:
DNA damage in U87-CXCR4 + cells was detected by immunofluorescent staining of the DNA damage and repair proteins, phospho-H2A histone family member X (yH2Ax) and p53-binding protein 1 (53BP1). Briefly, cells were seeded in 96-well plates and left overnight to adhere at 37 °C, 5% CO2. Next, cells were treated with different activity concentrations of [^177Lu]Lu-DOTA-POL3026 or [^177Lu]Lu-DTPA, ranging from 1 to 20 MBq/mL. After four hours of incubation, cells were washed twice with PBS, replenished with fresh media, and left at 37 °C, 5% CO2 until the fixation time point. For fixation, cells were washed with PBS, and fixed by incubating them with 4% paraformaldehyde (PFA) for 15 min at RT. This was done 0, 24 and 120 h after treatment. Cells were washed twice with PBS and stored in PBS at 4 °C until the residual radioactivity in the plate decayed. The vehicle includes the NaOAc radiolabeling buffer at the concentration used for the 20 MBq/mL peptide solutions.
After decay storage, yH2Ax/53BP1 double staining was performed using the following protocol. First, cells were washed once with PBS-glycine and then permeabilised by washing them for 10 min with PBS-Triton X-100. […]
Cells were imaged at 40x magnification using a BioTek Cytation 5 (Agilent Technologies, Mechelen, Belgium), where 4 fields were imaged per well, ensuring that at least a hundred cells were counted per condition. […]

Experiment [4] has as its system U87-CXCR4 + cells. The experiment in a line: Apoptosis live cell imaging (Annexin V, Caspase 3/7; IncuCyte). The settings on record: day 5, 4 h, normalised to confluence and vehicle, N = 2. Here is the method: Apoptosis was measured using the IncuCyte® Zoom system (Essen Bioscience, Hertfordshire, UK).
Briefly, cells were seeded in 96-well plates, and left to attach overnight at 37 °C, 5% CO2. Next, cells were treated with different activity concentrations of [^177Lu]Lu-DOTA-POL3026 or [^177Lu]Lu-DTPA, ranging from 1 to 20 MBq/mL. After four hours of incubation at 37 °C and 5% CO2, cells were washed twice with PBS. The Sartorius™ IncuCyte® dyes Caspase 3/7 green reagent and Annexin V red reagent were added at 1/2000 and 1/200 dilutions, respectively. Images were analysed using the IncuCyte® Zoom software. The average values of Green Calibrated Unit GCU x µm² (for Caspase 3/7) and Red Calibrated Units RCU x µm² (for Annexin V) signal were normalised to cell confluence percentages, five and seven days after treatment. Vehicle includes the NaOAc radiolabeling buffer at the concentration used for the 20 MBq/mL peptide solutions.

Where a SMILES comes first, the peptide text is derived from it. Bridges are numbered along the chain shown (N, C = ends). Roman numbers before positions name the chains, in order. [ ]: non-standard residue; d: D form. The star is where a group is joined. DOTA = O=C(O)CN1CCN(CC(=O)O)CCN(CC(=O)*)CCN(CC(=O)O)CC1

In the case of `CC(C)C[C@@H](N)C(=O)NCC(=O)N[C@H](C)C(=O)N[C@H](CO)C(=O)N[C@H](Cc1c[nH]c2ccccc12)C(=O)N[C@H](Cc1c[nH]cn1)C(=O)N[C@H](CCCNC(=N)N)C(=O)N1CCC[C@@H]1C(=O)N[C@H](CC(=O)O)C(=O)N[C@H](CCCCNC(=O)CN1CCN(CC(=O)O)CCN(CC(=O)O)CCN(CC(=O)O)CC1)C(=O)NCCCC[C@@H](NC(=O)[C@H]1CCCN1C(=O)[C@@H](CC(C)C)NC(=O)[C@H]1CCCN1C(=O)[C@@H](CCCNC(=N)N)NC(=O)[C@@H](CCCCN)NC(=O)[C@@H](CCC(N)=O)NC(=O)[C@@H](Cc1ccc(O)cc1)NC(=O)CNC(=O)[C@@H](CC(C)C)NC(=O)[C@@H](CS)NC(=O)[C@@H](CS)NC(=O)[C@@H](CCCCN)NC(=O)[C@@H](CC(=O)O)NC(=O)[C@H]1CCCN1C(=O)[C@@H](CCCNC(=N)N)NC(=O)[C@@H](Cc1c[nH]cn1)NC(=O)[C@@H](Cc1c[nH]c2ccccc12)NC(=O)[C@@H](CO)NC(=O)[C@@H](C)NC(=O)CNC(=O)[C@H](N)CC(C)C)C(N)=O` [[^177Lu]Lu-DOTA-DV1-K-DV3, metal not drawn] (I: H-[dL]G[dA][dS][dW][dH][dR][dP][dD][dK][dC][dC][dL]G[dY][dQ][dK][dR][dP][dL][dP][dK]-NH2 / II: H-[dL]G[dA][dS][dW][dH][dR][dP][dD][dK](DOTA); amide I:22-II:C; N-terminus and C-terminus assumed), in the experiment on U87-CXCR4 + cells [1] (1 nM, 4 h, 37 °C, glycine stripping buffer pH 2.8, mean ± SD, N = 2), the “added activity bound to the cell membrane” value is on record as “less than 1 %AA”. Besides, the added activity internalised with U87-CXCR4 + cells [1] (1 nM, 4 h, 37 °C, mean ± SD, N = 2) is 0.2 ± 0.02 %AA. Also, the “reduction of binding in presence of 100 µM AMD11070 (specific binding)” value with U87-CXCR4 + cells [1] (1 nM, stated after the internalised fractions) is “negligible”. Besides, in the experiment with U87-CXCR4 + cells [1] (incubation concentration 100 nM), the “change of uptake (%AA) at 100 nM compared with 1 nM” value is on record as “did not significantly increase”.

Turning to `O=C([O-])CN(CCN(CC(=O)[O-])CC(=O)[O-])CCN(CC(=O)[O-])CC(=O)[O-].[177Lu+3]` [[^177Lu]Lu-DTPA], the cell viability (as a rule, the share of living cells, or the viability signal relative to a control) in the experiment with U87-CXCR4 + cells [2] (1 MBq/mL, day not stated in the sentence (follows the day 7 statement)) worked out at 90.9 ± 7.8%; in the experiment with U87-CXCR4 + cells [2] (day 5, 20 MBq/mL, 4 h incubation, N = 3–4), 50.2 ± 10.4%. In the experiment on U87-CXCR4 + cells [2] (day 7, 2 to 20 MBq/mL), the “effect on cell viability” value was “statistically-significant reduction”. The “increase of yH2AX” value in the experiment on U87-CXCR4 + cells [3] (any of the activity concentrations (1–20 MBq/mL)) is “did not result in an increase”. For the same compound, the “increase in 53BP1” value in the experiment with U87-CXCR4 + cells [3] (any timepoint (0 h, 1 day, 5 days) after treatment) was “No statistically-significant increase”. The “Annexin V signal” value with U87-CXCR4 + cells [4] (1 MBq/mL) is listed as 1.4 ± 0.8 times the vehicle; in the experiment on U87-CXCR4 + cells [4] (10 MBq/mL), 3.3 ± 3.3 times the vehicle.
